Laboratory results from EP0285356A2, “Dopamine-beta-hydroxylase inhibitors” (SMITHKLINE BECKMAN CORPORATION, priority 1987, dated 1988).
Like-named read-outs stand apart in the source and are kept apart here.

Key:
[1] = biological target: T1, dopamine-β-hydroxylase (DBH) (Homo sapiens, UniProt P09172); test: in vitro DBH inhibition, conversion of tyramine to octopamine in the presence of DBH; assay type: biochemical
T1 sequence (P09172 1-617): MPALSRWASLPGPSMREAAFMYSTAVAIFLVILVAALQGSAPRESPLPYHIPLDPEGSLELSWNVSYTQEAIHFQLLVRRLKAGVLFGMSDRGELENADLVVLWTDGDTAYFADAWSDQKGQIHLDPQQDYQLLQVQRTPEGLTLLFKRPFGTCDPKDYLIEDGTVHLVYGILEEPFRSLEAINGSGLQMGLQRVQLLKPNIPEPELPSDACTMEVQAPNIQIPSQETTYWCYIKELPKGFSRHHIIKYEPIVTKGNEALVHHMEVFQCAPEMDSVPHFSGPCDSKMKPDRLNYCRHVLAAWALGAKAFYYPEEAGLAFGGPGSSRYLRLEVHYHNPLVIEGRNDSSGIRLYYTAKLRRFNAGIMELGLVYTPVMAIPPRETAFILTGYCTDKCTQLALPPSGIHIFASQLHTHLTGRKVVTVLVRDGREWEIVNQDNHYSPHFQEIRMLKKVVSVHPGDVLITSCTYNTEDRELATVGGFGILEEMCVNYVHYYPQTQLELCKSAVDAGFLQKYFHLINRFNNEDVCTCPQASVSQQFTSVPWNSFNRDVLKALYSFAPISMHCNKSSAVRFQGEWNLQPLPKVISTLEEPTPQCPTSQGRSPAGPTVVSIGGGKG
Method: Listed in Table I are the compounds of the invention that were tested for in vitro DBH inhibition by a standard procedure for assaying conversion of tyramine to octopamine in the presence of DBH. J. J. Pisano, et al., Biochem. Biophys, Acta, 43, 566-568 (1960). Octopamine was assayed following sodium periodate oxidation to p-hydroxybenzaldehyde by measuring spectrophotometric absorbance at 330 nm. In Table I, inhibition is given in micromolar concentration of compound at which DBH activity was halved (IC₅₀).

[2] = tested on: spontaneously hypertensive rats; test: mean arterial blood pressure in spontaneously hypertensive rats; assay type: in vivo; details: 50 mg/kg intraperitoneally, compared to vehicle-treated controls, approximate
Method: Further, spontaneously hypertensive rats were treated with a suspension or solution of 1-(2-furanylmethyl)imidazole-2-thiol at a dose of 50 mg/kg intraperitoneally, and mean arterial blood pressure was monitored for 260 minutes using indwelling cannulae in the tail arteries. […] Maximal blood pressure reduction was approximately 50 to 55 mm Hg.

[3] = concentration of compound at which DBH activity was halved, tyramine to octopamine, absorbance at 330 nm, read-out: DBH IC50

IC50 [1, 3] [µM] | Structure (SMILES) | time after treatment to significant blood pressure reductions [2] [min] | IC50 [1] [µM]
56 | Sc1nccn1Cc1ccco1 [1-(2-furanylmethyl)imidazole-2-thiol] | ≤ 30 | 
36 | Sc1nccn1Cc1ccoc1 [1-(3-furanylmethyl)imidazole-2-thiol] |  | 
 | CCCCc1ccc(C(=O)O)nc1 [fusaric acid, reference compound] |  | 0.8
